Experimental data taken from ChEMBL document CHEMBL1201862, “PubChem BioAssay data set” (2004).
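Assay format: 96-well plates, 48-hour exposure. The concentration for 50% growth inhibition is given as GI50.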 Activity calls are given as the source filed them. Rule as the data show it: active = GI50 up to about 1.1 µM and inactive = higher.

What was measured:
Assay in all cases: DTP human tumour cell line panel, 48 h
[1] = system: A498
[2] = system: IGROV-1
[3] = system: NCI-H460
[4] = system: MDA-MB-231
[5] = system: DU-145
[6] = system: OVCAR-3
[7] = system: KM12
[8] = system: OVCAR-8
[9] = system: SF-295
[10] = system: UACC-62
[11] = system: K562
[12] = system: LOX IMVI
[13] = system: MOLT-4
[14] = system: 786-0
[15] = system: SK-MEL-5
[16] = system: HCT-15
[17] = system: HOP-92
[18] = system: SK-MEL-28
[19] = system: OVCAR-4

SMILES | GI50 [1] | GI50 [2] | GI50 [3] | GI50 [4] | GI50 [5] | GI50 [6] | GI50 [7] | GI50 [8] | GI50 [9] | GI50 [10] | GI50 [11] | GI50 [12] | GI50 [13] | GI50 [14] | GI50 [15] | GI50 [16] [µM] | GI50 [17] | GI50 [18] | GI50 [19]
COc1ccc(C2C=C(c3ccccc3)Nc3nnnn32)cc1 (stereo unspecified) | 34.4 µM (inactive) | 82.8 µM (inactive) | 45 µM (inactive) | 26.6 µM (inactive) | 28.4 µM (inactive) | 24.9 µM (inactive) | 15.8 µM (inactive) | 47.4 µM (inactive) | 31 µM (inactive) | 50.4 µM (inactive) | 50.6 µM (inactive) | 41.7 µM (inactive) | > 100 µM (inactive) | 27.5 µM (inactive) | 34.4 µM (inactive) | 31 |  |  | 
Cc1c(Cl)c(S(N)(=O)=O)cc(S(N)(=O)=O)c1NC(=O)c1ccc(Cl)cc1 | > 100 µM (inactive) | > 100 µM (inactive) | > 100 µM (inactive) |  | > 100 µM (inactive) | > 100 µM (inactive) | > 100 µM (inactive) | > 100 µM (inactive) | > 100 µM (inactive) | > 100 µM (inactive) | > 100 µM (inactive) | > 100 µM (inactive) | > 100 µM (inactive) | > 100 µM (inactive) | > 100 µM (inactive) | > 100 | > 100 µM (inactive) | > 100 µM (inactive) | > 100 µM (inactive)
O=C1NC(=S)N/C1=C\c1cccs1 |  | > 100 µM (inactive) |  | > 100 µM (inactive) | > 100 µM (inactive) | > 100 µM (inactive) | > 100 µM (inactive) | > 100 µM (inactive) | > 100 µM (inactive) | > 100 µM (inactive) | > 100 µM (inactive) | > 100 µM (inactive) | > 100 µM (inactive) | > 100 µM (inactive) | > 100 µM (inactive) | > 100 |  | > 100 µM (inactive) | > 100 µM (inactive)
CC1=C(C(=O)Nc2cccc(C(F)(F)F)c2)C(c2ccc(O)cc2)C(C(=O)Nc2cccc(C(F)(F)F)c2)=C(C)N1 | 17.5 µM (inactive) | 15.6 µM (inactive) | 16.7 µM (inactive) |  |  | 15.7 µM (inactive) | 15.8 µM (inactive) | 23.2 µM (inactive) | 20.5 µM (inactive) |  | 15 µM (inactive) | 15.6 µM (inactive) | 7.98 µM (inactive) | 16.7 µM (inactive) | 16.9 µM (inactive) |  | 11.5 µM (inactive) | 18.7 µM (inactive) | 14.8 µM (inactive)
CCC1(CC)C(=O)N(C(=O)c2ccc(Cl)cc2)N(C(=O)c2ccccc2Cl)C1=O |  | 3.5 µM (inactive) | 19.3 µM (inactive) | 50.5 µM (inactive) | > 100 µM (inactive) | 27.1 µM (inactive) | 52.8 µM (inactive) | 89.9 µM (inactive) | 63.5 µM (inactive) | 85.3 µM (inactive) | 45.7 µM (inactive) | 21 µM (inactive) | 20.6 µM (inactive) | 56.8 µM (inactive) | 75 µM (inactive) | 41 |  | 98.4 µM (inactive) | > 100 µM (inactive)
O=C(O[C@H](/C=C/c1ccccc1)P1(=O)N(Cc2ccccc2)[C@H]2CCCC[C@@H]2N1Cc1ccccc1)c1ccccc1 | 7.48 µM (inactive) | 3.21 µM (inactive) | 3.72 µM (inactive) | 3.49 µM (inactive) |  | 3.94 µM (inactive) | 3.41 µM (inactive) | 3.69 µM (inactive) | 3.74 µM (inactive) | 5.33 µM (inactive) | 4.2 µM (inactive) | 3.32 µM (inactive) |  | 3.7 µM (inactive) | 1.87 µM (inactive) | 3.22 | 1.99 µM (inactive) | 8.83 µM (inactive) | 1.49 µM (inactive)
C1CSCCSCCCSCCSCCCSCCSCCCSCCSC1 | > 100 µM (inactive) | > 100 µM (inactive) | > 100 µM (inactive) |  | > 100 µM (inactive) | > 100 µM (inactive) | > 100 µM (inactive) | > 100 µM (inactive) | > 100 µM (inactive) |  | > 100 µM (inactive) | > 100 µM (inactive) | > 100 µM (inactive) | > 100 µM (inactive) | > 100 µM (inactive) | > 100 | > 100 µM (inactive) | > 100 µM (inactive) | > 100 µM (inactive)
CCOC(=O)/C(=C/c1ccc(N(C)C)cc1)N(CC)CC |  | > 100 µM (inactive) |  |  |  | 24.5 µM (inactive) | 79.8 µM (inactive) | > 100 µM (inactive) | > 100 µM (inactive) | 74.5 µM (inactive) | 22.5 µM (inactive) | 27.7 µM (inactive) | 32.2 µM (inactive) | > 100 µM (inactive) | > 10 µM (inactive) | 40.3 | > 100 µM (inactive) | > 100 µM (inactive) | 73.1 µM (inactive)
CC(ON1[C@](C)(c2ccccc2)CC[C@@]1(C)c1ccccc1)c1ccccc1 (stereo partly specified) |  | 52 µM (inactive) | 36.2 µM (inactive) | 43.3 µM (inactive) | 34.8 µM (inactive) | 38.4 µM (inactive) | 29.4 µM (inactive) | 48.2 µM (inactive) | 26.3 µM (inactive) |  | 33 µM (inactive) | 31.2 µM (inactive) | 16.2 µM (inactive) | 52.4 µM (inactive) | 30 µM (inactive) | > 100 | 21.4 µM (inactive) | 53.2 µM (inactive) | 68.4 µM (inactive)
O=C1NC(=O)C(C(=O)C(=O)Nc2cc(Cl)ccc2Cl)C(=O)N1 | > 100 µM (inactive) | > 100 µM (inactive) | > 100 µM (inactive) |  |  | > 100 µM (inactive) | > 100 µM (inactive) | > 100 µM (inactive) | > 100 µM (inactive) | > 100 µM (inactive) | > 100 µM (inactive) |  | > 100 µM (inactive) | > 100 µM (inactive) | > 100 µM (inactive) | > 100 | 91.8 µM (inactive) | > 100 µM (inactive) | > 100 µM (inactive)
NNC(=S)N/N=C(\C(=O)Nc1cccc(O)c1)C1C(=O)NC(=S)NC1=O | > 100 µM (inactive) | > 100 µM (inactive) | > 100 µM (inactive) | > 100 µM (inactive) |  | > 100 µM (inactive) | > 100 µM (inactive) | > 100 µM (inactive) | > 100 µM (inactive) | > 100 µM (inactive) | > 100 µM (inactive) | > 100 µM (inactive) | > 100 µM (inactive) | > 100 µM (inactive) | > 100 µM (inactive) | > 100 | > 100 µM (inactive) | > 100 µM (inactive) | 36.3 µM (inactive)
CC#CCCCC1(C)CCNC1=S (stereo unspecified) |  |  | > 10 µM (inactive) |  | > 10 µM (inactive) | > 10 µM (inactive) | > 10 µM (inactive) | > 10 µM (inactive) | > 10 µM (inactive) |  | > 10 µM (inactive) | > 10 µM (inactive) | > 10 µM (inactive) | > 10 µM (inactive) |  | > 10 | > 10 µM (inactive) |  | > 10 µM (inactive)
CCOC(=O)C(Cl)(NC(=O)c1c(F)c(F)c(F)c(F)c1F)C(F)(F)F (stereo unspecified) |  | > 100 µM (inactive) |  | > 100 µM (inactive) | > 100 µM (inactive) | > 100 µM (inactive) | > 100 µM (inactive) | > 100 µM (inactive) | > 100 µM (inactive) | > 100 µM (inactive) | > 100 µM (inactive) | > 100 µM (inactive) | > 100 µM (inactive) | > 100 µM (inactive) | > 100 µM (inactive) | > 100 | 28.3 µM (inactive) | > 100 µM (inactive) | > 100 µM (inactive)
CS/C=C\C(=O)O[C@H]1C[C@@H]2[C@@H](O)c3occ(C)c3C[C@]2(C)[C@@H](C)C1 |  | 20.4 µM (inactive) | 21.6 µM (inactive) | 22.4 µM (inactive) | 27.9 µM (inactive) | 16.4 µM (inactive) | 91 µM (inactive) | 22.6 µM (inactive) | 29.6 µM (inactive) | 17.9 µM (inactive) | 15.4 µM (inactive) | 17.6 µM (inactive) | 20.7 µM (inactive) | 16.6 µM (inactive) | 14.9 µM (inactive) | 30.1 | 25.8 µM (inactive) | 19.8 µM (inactive) | 22.2 µM (inactive)
c1ccc2[nH]c3[nH]c4[nH]c5ccccc5[nH]c4[nH]c3[nH]c2c1 | > 100 µM (inactive) | > 100 µM (inactive) | > 100 µM (inactive) | > 100 µM (inactive) | > 100 µM (inactive) | > 100 µM (inactive) | > 100 µM (inactive) | > 100 µM (inactive) | 66.2 µM (inactive) | > 100 µM (inactive) | > 100 µM (inactive) | > 100 µM (inactive) | > 100 µM (inactive) | > 100 µM (inactive) | > 100 µM (inactive) | > 100 |  | > 100 µM (inactive) | 
CC1C=C[C@H](Sc2ccccc2)CC[C@@]1(C)O (stereo partly specified) | > 100 µM (inactive) | > 100 µM (inactive) | > 100 µM (inactive) |  |  |  |  | > 100 µM (inactive) |  | 86.1 µM (inactive) | 67.5 µM (inactive) | > 100 µM (inactive) | 35.1 µM (inactive) | > 100 µM (inactive) | 59.4 µM (inactive) | > 100 | 40.5 µM (inactive) | > 100 µM (inactive) | 
Nc1ccc(-c2nn3c(COc4ccc(Cl)cc4)nnc3s2)cc1 |  | > 100 µM (inactive) | 40 µM (inactive) | 87.3 µM (inactive) | > 100 µM (inactive) | > 100 µM (inactive) |  | > 100 µM (inactive) | 56.9 µM (inactive) | > 100 µM (inactive) | > 100 µM (inactive) | > 100 µM (inactive) | 51.3 µM (inactive) | > 100 µM (inactive) | > 100 µM (inactive) | > 100 |  | > 100 µM (inactive) | > 100 µM (inactive)
